Assay results as given in patent US20230150944A1, “PESTICIDALLY ACTIVE HETEROCYCLIC DERIVATIVES WITH SULFOXIMINE CONTAINING SUBSTITUENTS” (SYNGENTA CROP PROTECTION AG, priority 2018, published 2023).

Key:
Format in all cases: in vivo
[1] = system: Plutella xylostella (Diamond Back Moth); assay: Example B6: Activity on Plutella xylostella, artificial diet, L2 larvae; conditions: 120 h, application rate of 200 ppm, 5 days after infestation, read-out: effect in at least one of the two categories (mortality or growth inhibition)
Method: Example B6: Activity on Plutella xylostella (Diamond Back Moth)
24-well microtiter plates with artificial diet were treated with aqueous test solutions prepared from 10′000 ppm DMSO stock solutions by pipetting. After drying, the plates were infested with L2 larvae (10 to 15 per well). The samples were assessed for mortality and growth inhibition in comparison to untreated samples 5 days after infestation.

[2] = system: Spodoptera littoralis (Egyptian Cotton Leaf Worm); assay: Example B7: Activity on Spodoptera littoralis, cotton leaf disc spray; conditions: foliar, 72 h, application rate of 200 ppm, L1 larvae on cotton leaf discs, 3 days after infestation, read-out: control (mortality, anti-feeding effect or growth inhibition)
Method: Example B7: Activity on Spodoptera littoralis (Egyptian Cotton Leaf Worm)
Cotton leaf discs were placed onto agar in 24-well microtiter plates and sprayed with aqueous test solutions prepared from 10′000 ppm DMSO stock solutions. After drying the leaf discs were infested with five L1 larvae. The samples were assessed for mortality, anti-feeding effect, and growth inhibition in comparison to untreated samples 3 days after infestation. Control of Spodoptera littoralis by a test sample is given when at least one of the categories mortality, anti-feedant effect, and growth inhibition is higher than the untreated sample.

[3] = system: Bemisia tabaci (Cotton White Fly); assay: Example B1: Activity on Bemisia tabaci, cotton leaf disc spray; conditions: foliar, 144 h, application rate of 200 ppm, adult white flies on cotton leaf discs, 6 days after incubation
Method: Example B1: Activity on Bemisia tabaci (Cotton White Fly)
Cotton leaf discs were placed on agar in 24-well microtiter plates and sprayed with aqueous test solutions prepared from 10′000 ppm DMSO stock solutions. After drying the leaf discs were infested with adult white flies. The samples were checked for mortality 6 days after incubation.

[4] = system: Diabrotica balteata (Corn Root Worm); assay: Example B2: Activity on Diabrotica balteata, maize sprout spray; conditions: 96 h, application rate of 200 ppm, L2 larvae on maize sprouts, 4 days after infestation, read-out: effect in at least one of the two categories (mortality or growth inhibition)
Method: Example B2: Activity on Diabrotica balteata (Corn Root Worm)
Maize sprouts placed onto an agar layer in 24-well microtiter plates were treated with aqueous test solutions prepared from 10′000 ppm DMSO stock solutions by spraying. After drying, the plates were infested with L2 larvae (6 to 10 per well). The samples were assessed for mortality and growth inhibition in comparison to untreated samples 4 days after infestation.

[5] = system: Myzus persicae (Green Peach Aphid); assay: Example B4: Activity on Myzus persicae, sunflower leaf disc spray; conditions: foliar, 144 h, application rate of 200 ppm, mixed-age aphids on sprayed sunflower leaf discs, 6 days after infestation
Method: Example B4: Activity on Myzus persicae (Green Peach Aphid)
Sunflower leaf discs were placed onto agar in a 24-well microtiter plate and sprayed with aqueous test solutions prepared from 10′000 ppm DMSO stock solutions. After drying, the leaf discs were infested with an aphid population of mixed ages. The samples were assessed for mortality 6 days after infestation.

[6] = system: Euschistus heros (Neotropical Brown Stink Bug); assay: Example B3: Activity on Euschistus heros, soybean leaf spray; conditions: 120 h, application rate of 200 ppm, N2 nymphs on soybean leaves, 5 days after infestation, read-out: effect in at least one of the two categories (mortality or growth inhibition)
Method: Example B3: Activity on Euschistus heros (Neotropical Brown Stink Bug)
Soybean leaves on agar in 24-well microtiter plates were sprayed with aqueous test solutions prepared from 10′000 ppm DMSO stock solutions. After drying the leaves were infested with N2 nymphs. The samples were assessed for mortality and growth inhibition in comparison to untreated samples 5 days after infestation.

[7] = system: Myzus persicae (Green Peach Aphid); assay: Example B5: Activity on Myzus persicae, pea seedling roots in test solution; conditions: 144 h, test rate of 24 ppm, roots of infested pea seedlings placed into test solution, 6 days
Method: Example B5: Activity on Myzus persicae (Green Peach Aphid)
Roots of pea seedlings infested with an aphid population of mixed ages were placed directly into aqueous test solutions prepared from 10′000 DMSO stock solutions. The samples were assessed for mortality 6 days after placing seedlings into test solutions.

[8] = system: Plutella xylostella (Diamond Back Moth); assay: Example B11: Activity on Plutella xylostella, artificial diet, eggs; conditions: 192 h, application rate of 200 ppm, 8 days after infestation, read-out: effect in at least one of the two categories (mortality or growth inhibition)
Method: Example B11: Activity on Plutella xylostella (Diamond Back Moth)
24-well microtiter plates with artificial diet were treated with aqueous test solutions prepared from 10′000 ppm DMSO stock solutions by pipetting. After drying, Plutella eggs were pipetted through a plastic stencil onto a gel blotting paper and the plate was closed with it. The samples were assessed for mortality and growth inhibition in comparison to untreated samples 8 days after infestation.

CCS(=N)(=O)c1cc(C2CC2)cnc1-c1nc2cc(SC(F)(F)F)ncc2n1C (centres unmarked) [Example P4, [5-cyclopropyl-2-[3-methyl-6-(trifluoromethylsulfanyl)imidazo[4,5-c]pyridin-2-yl]-3-pyridyl]-ethyl-imino-oxo-λ^6-sulfane]
≥ 80%: percent effect (mortality or growth inhibition) at 200 ppm [1] | percent control (mortality, anti-feedant effect or growth inhibition) at 200 ppm [2] | mortality at 200 ppm [3] | percent effect (mortality or growth inhibition) at 200 ppm [4] | mortality at 200 ppm [5] | percent effect (mortality or growth inhibition) at 200 ppm [6] | mortality at 24 ppm [7]

CCS(=N)(=O)c1cc(C2CC2)cnc1-c1nc2cc(C(F)(F)F)ncc2n1C (centres unmarked) [Example P5, [5-cyclopropyl-2-[3-methyl-6-(trifluoromethyl)imidazo[4,5-c]pyridin-2-yl]-3-pyridyl]-ethyl-imino-oxo-λ^6-sulfane]
≥ 80%: percent effect (mortality or growth inhibition) at 200 ppm [1] | percent control (mortality, anti-feedant effect or growth inhibition) at 200 ppm [2] | percent effect (mortality or growth inhibition) at 200 ppm [4] | mortality at 200 ppm [5] | mortality at 24 ppm [7]

CCS(=N)(=O)c1cc(C2(C#N)CC2)cnc1-c1nc2cc(C(F)(F)F)cnc2n1C (centres unmarked) [Example P6, 1-[5-(ethylsulfonimidoyl)-6-[3-methyl-6-(trifluoromethyl)imidazo[4,5-b]pyridin-2-yl]-3-pyridyl]cyclopropanecarbonitrile]
≥ 80%: percent effect (mortality or growth inhibition) at 200 ppm [1] | mortality at 200 ppm [3] | mortality at 200 ppm [5] | mortality at 24 ppm [7]

CCS(=N)(=O)c1cc(C2CC2)cnc1-n1cc2cnc(C(F)(F)F)cc2n1 (centres unmarked) [Example P7, [5-cyclopropyl-2-[6-(trifluoromethyl)pyrazolo[4,3-c]pyridin-2-yl]-3-pyridyl]-ethyl-imino-oxo-λ^6-sulfane]
≥ 80%: percent effect (mortality or growth inhibition) at 200 ppm [1] | percent control (mortality, anti-feedant effect or growth inhibition) at 200 ppm [2] | percent effect (mortality or growth inhibition) at 200 ppm [4] | mortality at 200 ppm [5] | mortality at 24 ppm [7]

CCS(=N)(=O)c1cc(C2(C#N)CC2)cnc1-c1nc2cc(C(F)(F)F)n(OC)c(=O)c2n1C (centres unmarked) [Example P8, 1-[5-(ethylsulfonimidoyl)-6-[5-methoxy-3-methyl-4-oxo-6-(trifluoromethyl)imidazo[4,5-c]pyridin-2-yl]-3-pyridyl]cyclopropanecarbonitrile]
≥ 80%: percent effect (mortality or growth inhibition) at 200 ppm [1] | percent control (mortality, anti-feedant effect or growth inhibition) at 200 ppm [2] | mortality at 200 ppm [3] | percent effect (mortality or growth inhibition) at 200 ppm [4] | mortality at 200 ppm [5] | percent effect (mortality or growth inhibition) at 200 ppm [6] | mortality at 24 ppm [7]

CCS(=N)(=O)c1cc(C2(C#N)CC2)ccc1-c1nc2cc(SC(F)(F)F)ncc2n1C (centres unmarked) [Example P9, 1-[3-(ethylsulfonimidoyl)-4-[3-methyl-6-(trifluoromethylsulfanyl)imidazo[4,5-c]pyridin-2-yl]phenyl]cyclopropanecarbonitrile]
≥ 80%: mortality at 200 ppm [5] | percent effect (mortality or growth inhibition) at 200 ppm [6] | mortality at 24 ppm [7]

CCS(=N)(=O)c1cc(C2(C#N)CC2)cnc1-c1nc2cc(C(F)(F)F)nnc2n1C (centres unmarked) [Example P10, 1-[5-(ethylsulfonimidoyl)-6-[7-methyl-3-(trifluoromethyl)imidazo[4,5-c]pyridazin-6-yl]-3-pyridyl]cyclopropanecarbonitrile]
≥ 80%: mortality at 200 ppm [3] | percent effect (mortality or growth inhibition) at 200 ppm [4] | mortality at 200 ppm [5] | percent effect (mortality or growth inhibition) at 200 ppm [6] | mortality at 24 ppm [7]

CCS(=N)(=O)c1cc(C2CC2)cnc1-c1nc2cc(C(F)(F)F)nnc2n1C (centres unmarked) [Example P11, [5-cyclopropyl-2-[7-methyl-3-(trifluoromethyl)imidazo[4,5-c]pyridazin-6-yl]-3-pyridyl]-ethyl-imino-oxo-λ^6-sulfane]
≥ 80%: percent effect (mortality or growth inhibition) at 200 ppm [1] | percent control (mortality, anti-feedant effect or growth inhibition) at 200 ppm [2] | percent effect (mortality or growth inhibition) at 200 ppm [4] | mortality at 200 ppm [5] | mortality at 24 ppm [7]

CCS(=N)(=O)c1cc(C2CC2)cnc1-c1nc2cc(C(F)(F)F)cnc2n1C (centres unmarked) [Example P12, [5-cyclopropyl-2-[3-methyl-6-(trifluoromethyl)imidazo[4,5-b]pyridin-2-yl]-3-pyridyl]-ethyl-imino-oxo-λ^6-sulfane]
≥ 80%: percent effect (mortality or growth inhibition) at 200 ppm [1] | percent control (mortality, anti-feedant effect or growth inhibition) at 200 ppm [2] | percent effect (mortality or growth inhibition) at 200 ppm [4] | mortality at 200 ppm [5] | mortality at 24 ppm [7]

CCS(=N)(=O)c1cc(C2(C#N)CC2)ccc1-c1nc2cc(C(F)(F)F)ncc2n1C (centres unmarked) [Example P13, 1-[3-(ethylsulfonimidoyl)-4-[3-methyl-6-(trifluoromethyl)imidazo[4,5-c]pyridin-2-yl]phenyl]cyclopropanecarbonitrile]
≥ 80%: mortality at 200 ppm [3] | percent effect (mortality or growth inhibition) at 200 ppm [4] | mortality at 200 ppm [5] | percent effect (mortality or growth inhibition) at 200 ppm [6] | mortality at 24 ppm [7]

CCn1c(C(F)(F)F)cc2nc(-c3ncc(C4(C#N)CC4)cc3S(=N)(=O)CC)n(C)c2c1=O (centres unmarked) [Example P14, 1-[6-[5-ethyl-3-methyl-4-oxo-6-(trifluoromethyl)imidazo[4,5-c]pyridin-2-yl]-5-(ethylsulfonimidoyl)-3-pyridyl] cyclopropanecarbonitrile]
≥ 80%: percent effect (mortality or growth inhibition) at 200 ppm [1] | percent control (mortality, anti-feedant effect or growth inhibition) at 200 ppm [2] | mortality at 200 ppm [3] | percent effect (mortality or growth inhibition) at 200 ppm [4] | mortality at 200 ppm [5] | percent effect (mortality or growth inhibition) at 200 ppm [6] | mortality at 24 ppm [7]

CCS(=N)(=O)c1cc(C2(C#N)CC2)ccc1-c1nc2cc(C(F)(F)F)cnc2n1C (centres unmarked) [Example P15, 1-[3-(ethylsulfonimidoyl)-4-[3-methyl-6-(trifluoromethyl)imidazo[4,5-b]pyridin-2-yl]phenyl]cyclopropanecarbonitrile]
≥ 80%: percent effect (mortality or growth inhibition) at 200 ppm [1] | percent control (mortality, anti-feedant effect or growth inhibition) at 200 ppm [2] | mortality at 200 ppm [3] | mortality at 200 ppm [5] | percent effect (mortality or growth inhibition) at 200 ppm [6] | mortality at 24 ppm [7]

CCS(=N)(=O)c1cc(C2CC2)cnc1-c1nc2cc(SC(F)(F)F)ccc2o1 (centres unmarked) [Example P18, [5-cyclopropyl-2-[5-(trifluoromethylsulfanyl)-1,3-benzoxazol-2-yl]-3-pyridyl]-ethyl-imino-oxo-λ^6-sulfane]
≥ 80%: percent effect (mortality or growth inhibition) at 200 ppm [8]
